Data on 1 compound can be found in ChEMBL document CHEMBL1933003, “Cytotoxic esterified diterpenoid alkaloid derivatives with increased selectivity against a drug-resistant cancer cell line” (Bioorg Med Chem Lett, 2012).

Each structure is given as a SMILES string.

Experiment [1] concerns KB. In words: Selectivity ratio of EC50 for human KB cells to EC50 for multi-drug resistant variant vincristine resistant human KB cells expressing P-glycoprotein by sulforhodamine B assay. In kind it is functional.
Another experiment concerns DU-145. Briefly: Cytotoxicity against human DU145 cells by sulforhodamine B assay. It counts as functional, cell-based.
Another experiment deals with A549. In words: Cytotoxicity against human A549 cells by sulforhodamine B assay. It counts as functional, cell-based.
For experiment [2], the system named is KB. In words: Cytotoxicity against human KB cells by sulforhodamine B assay. It counts as functional, cell-based.
Experiment [3] concerns KB. In words: Cytotoxicity against multi-drug resistant variant vincristine resistant human KB cells expressing P-glycoprotein by sulforhodamine B assay. In kind it is functional, cell-based.

Consider `CCN1C[C@]2(C)CC[C@H](OC)[C@@]34[C@@H]5C[C@H]6[C@H](OC)[C@@H]5[C@@]5(C[C@@H]6OC)OCO[C@@]5([C@@H](OC(=O)c5ccc(Cl)cc5)[C@H]23)[C@@H]14`, for which the “Ratio EC50” value in the experiment on KB [1] was 1.07. In addition, the EC50 in the experiment with DU-145 turned out to be 7.4 µM; in the experiment on A549 it was 14.8 µM; in the experiment on KB [2] it was 8.85 µM; in the experiment on KB [3] it was 8.27 µM.
